Source: US8933065B2, “N-benzylamide substituted derivatives of 2-(acylamido)acetic acid and 2-(acylamido)propionic acids: potent neurological agents” (The University of North Carolina at Chapel Hill, priority 2008, dated 2015)

Key:
[1] = system: maximal electroshock (MES)-induced seizures; test: Maximal electroshock seizure (MES) test, mice (ip); format: in vivo; conditions: for ED50: Mus musculus
Protocol: (§2) The maximal electroconvulsive shock (MES) test is regarded as a standard screen for anticonvulsant activity in terms of inhibition of seizure spread in generalized tonic-clonic seizures.
(§3) Groups of at least 8 male albino CF No. 1 mice or male albino Sprague-Dawley rats are treated with 10 mL/kg i.p. or 4 mL/kg p.o. of the test compound solution, respectively. The electrical stimulus in the MES test is 50 mA at 60 Hz for mice and 150 mA at 60 Hz for rats, both delivered for 0.2 sec. Abolition of the hind leg tonic extensor component of the seizure is used as the endpoint.

[2] = system: neurologic toxicity (rotorod test); test: Neurologic toxicity, rotorod test, mice (ip); format: in vivo
Protocol: (§1) Tests are conducted in groups of at least 8 mice or rats to determine the intrinsic neurotoxicity (neuromuscular impairment) after administration of the test compound by the route of administration to be used in the pharmacology studies. Neurotoxicity is determined in male CF No 1 mice by the rotarod procedure. Inability of the mouse to maintain its equilibrium in 3 trials during 1 min on this rotating rod (6 rpm) is used as an indication of such impairment. In Sprague-Dawley rats, minimal motor impairment (MMI) is determined by overt evidence of ataxia, abnormal gait, and stance.

behavioral toxicity = test: Toxicity (behavioral toxicity), rat (po); format: in vivo
Protocol: as §1

6 Hz seizures = test: 6 Hz seizure model, mice (ip); format: in vivo; conditions: for seizure activity in the 6 Hz seizure model assay: comparable to or exceeding phenyloin and phenobarbital
[3] = system: maximal electroshock (MES)-induced seizures; test: Maximal electroshock seizure (MES) test, rat (po); format: in vivo; conditions: Rattus norvegicus
Protocol: as §2, §3

[4] = mice, ip, time (h) in brackets, (terminal ring group)
[5] = behavioral toxicity, Table b608
[6] = rotorod test, time of peak effect (h) in brackets, Table 2
[7] = mice, ip, time (h) in brackets, Table 3, NINDS ASP
[8] = behavioral toxicity, Table b607
[9] = read-out: MES, ED50, rat, po, Table 3
[10] = mice, ip, 95% confidence intervals in parentheses, Table 1

COC[C@@H](NC(C)=O)C(=O)NCc1ccc(OCc2ccccc2)cc1 [(R)-20, (R)—N-4′-(Benzyloxy)benzyl 2-N-Acetamido-3-methoxypropionamide]
MES, ED50 [1, 4]: 5.8 [0.25] (4.4-7.2) milligrams per kilogram | Tox, TD50 ([2]; rotorod test, Table b608): 22 [0.25] (19- milligrams per kilogram | Tox, TD50 (behavioral toxicity; [5]): >250 [1.0] milligrams per kilogram

COC[C@H](NC(C)=O)C(=O)NCc1ccccc1 [(S)—B, reference compound]
Tox, TD50 ([2]; time (h) in brackets, Table 2): >300 [0.5]

C#CCOC[C@H](NC(C)=O)C(=O)NCc1ccccc1 [(S)-7, (S)—N-Benzyl-2-acetamido-3-(prop-2-ynyloxy)propanamide]
melting point: 148.5 to 149 °C | Tox, TD50 [2, 6]: >300 mg/kg | Tox, TD50 (behavioral toxicity; time (h) in brackets, Table 2): >30 mg/kg

COC[C@@H](NC(C)=O)C(=O)NCc1ccc(N=[N+]=[N-])cc1 [(R)-5, (R)—N-(4-Azidobenzyl)-2-acetamido-3-methoxypropanamide, reference compound]
Tox, TD50 (behavioral toxicity; time (h) in brackets, Table 2): > 250 mg/kg

COC[C@@H](NC(C)=O)C(=O)NCc1ccc(C2(C(F)(F)F)N=N2)cc1 [(R)-9]
ED50 ([1]; mice, ip, time (h) in brackets, Table 2, footnotes not given): 15.1 mg/kg

COC[C@H](NC(C)=O)C(=O)NCc1ccc(N=[N+]=[N-])cc1 [(S)-5, (S)—N-(4-Azidobenzyl)-2-acetamido-3-methoxypropanamide, reference compound]
Tox, TD50 (behavioral toxicity; time (h) in brackets, Table 2): > 30 mg/kg

COC[C@@H](NC(C)=O)C(=O)NCc1ccc(OCc2ccc(F)cc2)cc1 [(R)-22, (R)—N-4-(4-Fluorobenzyloxy)benzyl 2-Acetamido-3-methoxypropionamide]
Tox, TD50 (behavioral toxicity; [5]): >500 milligrams per kilogram

CCOCC(NC(C)=O)C(=O)NCc1ccccc1 (racemic) [(R,S)-10, reference compound]
MES, ED50 ([1]; mice, ip): 17 mg/kg

C#CCOCC(NC(C)=O)C(=O)NCc1ccc(N=[N+]=[N-])cc1 (stereo not drawn) [compound 8]
seizure activity in the 6 Hz seizure model assay (6 Hz seizures): excellent seizure activity

COC[C@H](NC(C)=O)C(=O)NCc1ccc(OCc2cccc(F)c2)cc1 [(S)-10, (S)-2-Acetamido-N-(4-(3-fluorobenzyloxy)benzyl)-3-methoxypropanamide]
MES, ED50 [1, 7]: >300 milligrams per kilogram | Tox, TD50 ([2]; rotorod test, Table 3): >300 milligrams per kilogram

C#CCOC[C@H](NC(C)=O)C(=O)NCc1ccc(N=C=S)cc1 [(S)-9, (S)—N-(4-Isothiocyanatobenzyl)-2-acetamido-3-(prop-2-ynyloxy)propanamide]
melting point: 157 to 158 °C | Tox, TD50 [2, 6]: >300 mg/kg

COC[C@H](NC(C)=O)C(=O)NCc1ccc(OCc2cccc(F)c2)cc1 [(S)-3, (S)-2-Acetamido-N-(4-(3-fluorobenzyloxy)benzyl)-3-methoxypropanamide]
Tox, TD50 ([2]; time (h) in brackets, Table 2): >300 [0.5]

COC[C@@H](NC(C)=O)C(=O)NCc1ccc(/C=C/c2cccc(F)c2)cc1 [(R)-14, (2-R,E)-N-4-(3-Fluorostyryl)benzyl 2-Acetamido-3-methoxypropionamide]
6 Hz, ED50 (6 Hz seizures; mice, ip, Table b607): <30 [0.25] milligrams per kilogram | ED50 ([3]; read-out: MES, ED50, rat, po): ~30 mg/kg | Tox, TD50 (behavioral toxicity; [8]): >30 [0.25, 4.0] milligrams per kilogram

CC(=O)NCC(=O)NCc1ccc(OCc2cccc(F)c2)cc1 [compound 5, N-4-(3-Fluorobenzyloxy)benzyl 2-Acetamidoacetamide]
Tox, TD50 ([2]; rotorod test, Table 3): >300 [0.5 and 4.0] milligrams per kilogram | ED50 [3, 9]: 31 mg/kg | Tox, TD50 (behavioral toxicity; behavioral toxicity, Table 3): >500 [1.0] milligrams per kilogram

COC[C@@H](NC(C)=O)C(=O)NCc1ccc(COc2cccc(F)c2)cc1 [(R)-16, (R)—N-4-((3-Fluorophenoxy)methyl)benzyl 2-Acetamido-3-methoxypropionamide]
MES, ED50 ([1]; mice, ip, time (h) in brackets, (X′—Y′—Z′ group)): 5.9 [0.25] milligrams per kilogram | Tox, TD50 ([2]; rotorod test, Table b607): 10 [0.25] milligrams per kilogram | ED50 ([3]; read-out: MES, ED50, rat, po): 19 mg/kg | Tox, TD50 (behavioral toxicity; [8]): >400 [0.5] milligrams per kilogram

C#CCOC[C@H](NC(C)=O)C(=O)NCc1ccc(N=[N+]=[N-])cc1 [(S)-8, (S)—N-(4-Azidobenzyl)-2-acetamido-3-(prop-2-ynyloxy)propanamide]
melting point: 135 to 136.5 °C | Tox, TD50 [2, 6]: >300 mg/kg | Tox, TD50 (behavioral toxicity; time (h) in brackets, Table 2): >30 mg/kg

C=CCOCC(NC(C)=O)C(=O)NCc1ccccc1 (racemic) [(R,S)-11, reference compound]
MES, ED50 ([1]; mice, ip): >30, <100 mg/kg

CC(=O)N[C@@H](C)C(=O)NCc1ccc(OCc2cccc(F)c2)cc1 [(S)-6, (S)—N-4-(3-Fluorobenzyloxy)benzyl 2-Acetamidopropionamide, reference compound]
Tox, TD50 ([2]; rotorod test, Table 3): >300 [0.5] milligrams per kilogram | ED50 [3, 9]: > 30 mg/kg | Tox, TD50 (behavioral toxicity; behavioral toxicity, Table 3): >30 [0.25 to milligrams per kilogram

CC(=O)NC(C)C(=O)NCc1ccccc1 (racemic) [(R,S)-4, reference compound]
MES, ED50 [1, 10]: 77 (67-89) mg/kg

CC(=O)NC(C(=O)NCc1ccccc1)c1ccco1 (racemic) [(R,S)-5, reference compound]
MES, ED50 [1, 10]: 10 (9.1-12) mg/kg

C#CCOCC(NC(C)=O)C(=O)NCc1ccccc1 (stereo not drawn) [compound 7]
seizure activity in the 6 Hz seizure model assay (6 Hz seizures): excellent seizure activity

C#CCOC[C@@H](NC(C)=O)C(=O)NCc1ccccc1 [(R)-7, (R)—N-Benzyl-2-acetamido-3-(prop-2-ynyloxy)propanamide]
melting point: 149 °C

COC[C@@H](NC(C)=O)C(=O)NCc1ccc(CCc2cccc(F)c2)cc1 [(R)-13]
ED50 ([3]; read-out: MES, ED50, rat, po): < 30 mg/kg | Tox, TD50 (behavioral toxicity; [8]): >30 [1] milligrams per kilogram

CC(=O)NC(C(=O)NCc1ccc(C)cc1)c1ccccc1 (stereo not drawn) [D, reference compound]
ED50 ([1]; mice (ip), text b213): ~300 mg/kg

COC[C@@H](NC(C)=O)C(=O)NCc1ccccc1 [(R)—B, (2R)-2-(acetylamino)-N-benzyl-3-methoxypropanamide, reference compound]
Tox, TD50 (behavioral toxicity; time (h) in brackets, Table 2): > 500 mg/kg

CC(=O)NC(C(=O)NCc1ccc(OCc2cccc(F)c2)cc1)c1ccccn1 (racemic) [(R,S)-9, N-4-(3-Fluorobenzyloxy)benzyl 2-Acetamido-2-(pyridin-2-yl)acetamide]
MES, ED50 [1, 7]: 28 [0.5] (20-36) milligrams per kilogram | ED50 [3, 9]: > 30 mg/kg | Tox, TD50 (behavioral toxicity; behavioral toxicity, Table 3): >30 [4] milligrams per kilogram

COC[C@@H](NC(C)=O)C(=O)NCc1ccc(COCc2cccc(F)c2)cc1 [(R)-18, (R)—N-4-(((3-Fluoro)benzyloxy)methyl)benzyl 2-Acetamido-3-methoxypropionamide]
melting point: 140 to 142 °C

COC[C@@H](NC(C)=O)C(=O)NCc1ccc([N+](=O)[O-])cc1 [F, reference compound]
ED50 ([1]; mice (ip), text b213): 100 to 300 mg/kg

CC(=O)NC(C(=O)NCc1ccccc1)c1ccccc1 (racemic) [(R,S)-6, reference compound]
MES, ED50 [1, 10]: 32 mg/kg

C#CCOC[C@@H](NC(C)=O)C(=O)NCc1ccc(N=C=S)cc1
melting point: 157 to 159 °C

C#CCOC[C@@H](NC(C)=O)C(=O)NCc1ccc(N=[N+]=[N-])cc1 [(R)-8, (R)—N-(4-Azidobenzyl)-2-acetamido-3-(prop-2-ynyloxy)propanamide]
melting point: 135 to 136 °C

COC[C@@H](NC(C)=O)C(=O)NCc1ccc(OCc2ccccc2F)cc1 [(R)-21, (R)—N-4-(2-Fluorobenzyloxy)benzyl 2-Acetamido-3-methoxypropionamide]
MES, ED50 [1, 4]: 6.7 [0.25] (4.8-9.1) milligrams per kilogram | Tox, TD50 ([2]; rotorod test, Table b608): 37 [0.5] (29-48) milligrams per kilogram | Tox, TD50 (behavioral toxicity; [5]): >500 milligrams per kilogram
